Each compound was assayed on COG-LL-319h (assay: selective drug sensitivity score (sDSS, relative to normal bone marrow) (sDSS (score)); higher = more potent and effective on the cell line relative to normal bone marrow cells). Conditions: 72 h.
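Also: ALL cell lines in 384-well plates, five doses spanning 10,000-fold, each plate scaled between vehicle and 100 µmol/L benzalkonium chloride controls, sDSS an adapted area-under-curve metric.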

Compared with `Cc1ncc(-c2ccnc(Nc3ccc(S(C)(=O)=O)cc3)n2)n1C(C)C` [AZD-5438] (top concentration 10000 nM), `N#CCNC(=O)c1ccc(-c2ccnc(Nc3ccc(N4CCOCC4)cc3)n2)cc1` [Momelotinib] (top concentration 10000 nM) is lower in “selective drug sensitivity score” value: 8.54 for the first, 0.28 for the second.

Compared with `NC[C@@](O)(c1ccc(Cl)cc1)c1ccc(-c2cn[nH]c2)cc1` (top concentration 10000 nM), `Cn1c(Nc2ccc(C(F)(F)F)cc2)nc2cc(Oc3ccnc(-c4ncc(C(F)(F)F)[nH]4)c3)ccc21` [NVP-RAF265] (top concentration 1000 nM) is higher in “selective drug sensitivity score” value: 1.48 for the first, 5.08 for the second.

Compared with `CNCc1ccc(-c2[nH]c3cc(F)cc4c3c2CCNC4=O)cc1` [Rucaparib] (top concentration 10000 nM), `CCN1CCN(Cc2ccc(Nc3ncc(F)c(-c4cc(F)c5nc(C)n(C(C)C)c5c4)n3)nc2)CC1` [Abemaciclib] (top concentration 2500 nM) is higher in “selective drug sensitivity score” value: 6.32 for the first, 6.64 for the second.

Compared with `O=C(CCCCCCC(=O)Nc1ccc([C@H]2O[C@@H](CSc3nc(-c4ccccc4)c(-c4ccccc4)o3)C[C@@H](c3ccc(CO)cc3)O2)cc1)NO` [Tubacin] (top concentration 10000 nM), `Cc1cc(Nc2ncc(Cl)c(Nc3ccccc3S(=O)(=O)C(C)C)n2)c(OC(C)C)cc1C1CCNCC1` [Ceritinib] (top concentration 2500 nM) is lower in “selective drug sensitivity score” value: 15.9 for the first, 6.66 for the second.

With `Nc1cccc2c1CN(C1CCC(=O)NC1=O)C2=O` (stereo not given) [Lenalidomide] (top concentration 100000 nM) the “selective drug sensitivity score” value was -1.78.

What follows are compounds tested on JURKAT in the same assay as above. Conditions: 72 h.

Compared with `Cn1cncc1[C@@](N)(c1ccc(Cl)cc1)c1ccc2c(c1)c(-c1cccc(Cl)c1)cc(=O)n2C` [Tipifarnib] (top concentration 10000 nM), `NC[C@@](O)(c1ccc(Cl)cc1)c1ccc(-c2cn[nH]c2)cc1` (top concentration 10000 nM) is lower in “selective drug sensitivity score” value: 3.6 for the first, 2.58 for the second.

First: COc1ccccc1S(=O)(=O)Nc1ccc2c(c1)CN(C)C(=O)N2 [PFI-1] (top concentration 30000 nM)
Second: Cc1ncc(-c2ccnc(Nc3ccc(S(C)(=O)=O)cc3)n2)n1C(C)C [AZD-5438] (top concentration 10000 nM)
The “selective drug sensitivity score” value of the first is higher: 0.8 for the first, -1.06 for the second.

First: Cc1cn(-c2cc(NC(=O)c3ccc(C)c(Nc4nccc(-c5cnccn5)n4)c3)cc(C(F)(F)F)c2)cn1 [Radotinib] (top concentration 10000 nM)
Second: Cn1c(Nc2ccc(C(F)(F)F)cc2)nc2cc(Oc3ccnc(-c4ncc(C(F)(F)F)[nH]4)c3)ccc21 [NVP-RAF265] (top concentration 1000 nM)
The “selective drug sensitivity score” value of the first is lower: 0 for the first, 2.88 for the second.

Going from `CC[C@H](Nc1ncnc2[nH]cnc12)c1nc2cccc(F)c2c(=O)n1-c1ccccc1` [Idelalisib] (top concentration 10000 nM) to `Cc1noc2c1-c1ccccc1C(c1ccc(Cl)cc1)=N[C@H]2CC(N)=O` [CPI-0610] (top concentration 10000 nM), the “selective drug sensitivity score” value rises from -1.76 to -0.2.

Compared with `C=C(c1ccc(C(=O)O)cc1)c1cc2c(cc1C)C(C)(C)CCC2(C)C` [Bexarotene] (top concentration 10000 nM), `CNCc1ccc(-c2[nH]c3cc(F)cc4c3c2CCNC4=O)cc1` [Rucaparib] (top concentration 10000 nM) is higher in “selective drug sensitivity score” value: -2.7 for the first, -0.58 for the second.

Going from `CC1(COc2ccc3c(c2)ncn3-c2ccc3cccc(N4CCC(N)CC4)c3n2)COC1` [Crenolanib] (top concentration 10000 nM) to `N#CCNC(=O)c1ccc(-c2ccnc(Nc3ccc(N4CCOCC4)cc3)n2)cc1` [Momelotinib] (top concentration 10000 nM), the “selective drug sensitivity score” value falls from -1.12 to -5.12.

Compared with `O=C(Nc1cc(Oc2cc(F)c(NC(=O)C3(C(=O)Nc4ccc(F)cc4)CC3)cc2F)ccn1)C1CC1` [Altiratinib] (top concentration 10000 nM), `O=C(Nc1ccncc1)C(=O)c1cn(Cc2ccc(Cl)cc2)c2ccccc12` [Indibulin] (top concentration 10000 nM) is higher in “selective drug sensitivity score” value: 0.84 for the first, 15.1 for the second.

Compared with `O=C(CCCCCCC(=O)Nc1ccc([C@H]2O[C@@H](CSc3nc(-c4ccccc4)c(-c4ccccc4)o3)C[C@@H](c3ccc(CO)cc3)O2)cc1)NO` [Tubacin] (top concentration 10000 nM), `Cc1cc(Nc2ncc(Cl)c(Nc3ccccc3S(=O)(=O)C(C)C)n2)c(OC(C)C)cc1C1CCNCC1` [Ceritinib] (top concentration 2500 nM) is lower in “selective drug sensitivity score” value: 4.14 for the first, -3.44 for the second.

First: Nc1cccc2c1CN(C1CCC(=O)NC1=O)C2=O (stereo not given) [Lenalidomide] (top concentration 100000 nM)
Second: CCN1CCN(Cc2ccc(Nc3ncc(F)c(-c4cc(F)c5nc(C)n(C(C)C)c5c4)n3)nc2)CC1 [Abemaciclib] (top concentration 2500 nM)
The “selective drug sensitivity score” value of the first is higher: -2.28 for the first, -6.16 for the second.

These compounds were tested on NALL-1 in the same assay as above. Conditions: 72 h.

Going from `Cn1cncc1[C@@](N)(c1ccc(Cl)cc1)c1ccc2c(c1)c(-c1cccc(Cl)c1)cc(=O)n2C` [Tipifarnib] (top concentration 10000 nM) to `NC[C@@](O)(c1ccc(Cl)cc1)c1ccc(-c2cn[nH]c2)cc1` (top concentration 10000 nM), the “selective drug sensitivity score” value falls from 1.4 to -1.22.

Going from `COc1ccccc1S(=O)(=O)Nc1ccc2c(c1)CN(C)C(=O)N2` [PFI-1] (top concentration 30000 nM) to `Cc1ncc(-c2ccnc(Nc3ccc(S(C)(=O)=O)cc3)n2)n1C(C)C` [AZD-5438] (top concentration 10000 nM), the “selective drug sensitivity score” value falls from -4.1 to -6.86.

First: Cc1cn(-c2cc(NC(=O)c3ccc(C)c(Nc4nccc(-c5cnccn5)n4)c3)cc(C(F)(F)F)c2)cn1 [Radotinib] (top concentration 10000 nM)
Second: Cn1c(Nc2ccc(C(F)(F)F)cc2)nc2cc(Oc3ccnc(-c4ncc(C(F)(F)F)[nH]4)c3)ccc21 [NVP-RAF265] (top concentration 1000 nM)
The “selective drug sensitivity score” value of the first is lower: 0 for the first, 2.88 for the second.

Going from `CC[C@H](Nc1ncnc2[nH]cnc12)c1nc2cccc(F)c2c(=O)n1-c1ccccc1` [Idelalisib] (top concentration 10000 nM) to `Cc1noc2c1-c1ccccc1C(c1ccc(Cl)cc1)=N[C@H]2CC(N)=O` [CPI-0610] (top concentration 10000 nM), the “selective drug sensitivity score” value falls from 3.54 to -4.4.

Going from `C=C(c1ccc(C(=O)O)cc1)c1cc2c(cc1C)C(C)(C)CCC2(C)C` [Bexarotene] (top concentration 10000 nM) to `CNCc1ccc(-c2[nH]c3cc(F)cc4c3c2CCNC4=O)cc1` [Rucaparib] (top concentration 10000 nM), the “selective drug sensitivity score” value rises from -4.5 to -0.58.

Going from `CC1(COc2ccc3c(c2)ncn3-c2ccc3cccc(N4CCC(N)CC4)c3n2)COC1` [Crenolanib] (top concentration 10000 nM) to `N#CCNC(=O)c1ccc(-c2ccnc(Nc3ccc(N4CCOCC4)cc3)n2)cc1` [Momelotinib] (top concentration 10000 nM), the “selective drug sensitivity score” value falls from 1.58 to -6.72.

Going from `O=C(Nc1cc(Oc2cc(F)c(NC(=O)C3(C(=O)Nc4ccc(F)cc4)CC3)cc2F)ccn1)C1CC1` [Altiratinib] (top concentration 10000 nM) to `O=C(Nc1ccncc1)C(=O)c1cn(Cc2ccc(Cl)cc2)c2ccccc12` [Indibulin] (top concentration 10000 nM), the “selective drug sensitivity score” value rises from 4.14 to 9.94.

First: O=C(CCCCCCC(=O)Nc1ccc([C@H]2O[C@@H](CSc3nc(-c4ccccc4)c(-c4ccccc4)o3)C[C@@H](c3ccc(CO)cc3)O2)cc1)NO [Tubacin] (top concentration 10000 nM)
Second: Cc1cc(Nc2ncc(Cl)c(Nc3ccccc3S(=O)(=O)C(C)C)n2)c(OC(C)C)cc1C1CCNCC1 [Ceritinib] (top concentration 2500 nM)
The “selective drug sensitivity score” value of the first is higher: 7.54 for the first, -2.14 for the second.

First: Nc1cccc2c1CN(C1CCC(=O)NC1=O)C2=O (stereo not given) [Lenalidomide] (top concentration 100000 nM)
Second: CCN1CCN(Cc2ccc(Nc3ncc(F)c(-c4cc(F)c5nc(C)n(C(C)C)c5c4)n3)nc2)CC1 [Abemaciclib] (top concentration 2500 nM)
The “selective drug sensitivity score” value of the first is higher: -2.28 for the first, -5.96 for the second.
